The subject of data set [1] is A431 cells (expressing EGFR^WT). Description: Sulforhodamine B (SRB) cellular antiproliferation assay, A431. Format: cell-based. Particulars: Homo sapiens, A-431, 72 h, mean ± SD, read-out: Cellular Antiproliferative Activity (IC50, nM) A431. The text has this: (§1) Having explored potent inhibition and obvious selectivity of EGFR kinases by introduction of alkyl groups to C4-position to the 1,4-dihydro-2H-pyrimido[4,5-d][1,3]oxazin-2-one ring, we subsequently evaluated their anti-proliferative activities in H1975 cells (expressing EGFR^L858R/T790M) and A431 cells (expressing EGFR^WT) in vitro by using the sulforhodamine B (SRB) colourimetric assay. The anti-proliferative activities of our designed compounds against H1975 and A431 cell lines range from 135 nM to more than 9 μM and from 554 nM to more than 7 μM, respectively (Fig. 5). Additionally, the selectivity at the cellular level is from 0.7 to 9.4-fold.
(§2) In vitro cellular antiproliferation activities of the designed compounds against H1975 and A431 cell lines were examined by using the well-established sulforhodamine B (SRB) colorimetric assay. The detailed experiment was performed according to the published literature. Briefly, H1975 and A431 cells were seeded in 96-well plates, and allowed to adhere overnight followed by treated with gradient concentrations of the test compounds for 72 h. […] The IC50 values were obtained by using the Logit method and reported as the mean ± SD from three independent determinations.

In data set [2] the target is T1, EGFR^WT (Homo sapiens, UniProt P00533).
T1 construct: Kinases domain of EGFR^L858R/T790M and EGFR^WT were expressed by using the Bac-to-Bac™ baculovirusexpression system; made in house
Kind of data set: ELISA-based EGFR-TK enzymatic activity assay (WT). Format: biochemical. Particulars: mean ± SD, at least three determinations, read-out: Enzyme Inhibitory Activity (IC50, nM) WT. As for the experimental part: In vitro antiproliferation activities of the compounds were examined through using the sulforhodamine B (SRB) colourimetric assay.
(§3) The enzymatic activity assay was evaluated by using the well-established ELISA-based assay. […] The detailed experiment was performed according to the published literature.

Data set [3] has as its target T2, EGFR^L858R/T790M (Homo sapiens, UniProt P00533, L858R/T790M).
T2 construct: Kinases domain of EGFR^L858R/T790M and EGFR^WT were expressed by using the Bac-to-Bac™ baculovirusexpression system; made in house
Description: ELISA-based EGFR-TK enzymatic activity assay (dual mutant). Format: biochemical. Conditions: for IC50: ELISA-based EGFR-TK assay, mean ± SD, at least three determinations, read-out: Enzyme Inhibitory Activity (IC50, nM) L858R/T790M; for Enzyme Selectivity WT:DM: ratio IC50 EGFR^WT : EGFR^L858R/T790M. As to the method: as §3
On the technique in general: An ELISA detects its analyte on a solid surface through an enzyme-linked reagent.

In data set [4] the test system is H1975 cells (expressing EGFR^L858R/T790M). Kind of data set: Sulforhodamine B (SRB) cellular antiproliferation assay, H1975. Type of data set: cell-based. Conditions: for IC50: Homo sapiens, NCI-H1975, SRB assay, 72 h, mean ± SD, read-out: Cellular Antiproliferative Activity (IC50, nM) H1975; for Cellular Selectivity A431:H1975: ratio IC50 A431 : H1975.
Excerpt: as §1, §2
Background: Sulforhodamine B stains cellular protein and so reports cell mass.

The target in data set [5] is T2, EGFR^L858R/T790M. Also on record: method as in PMID 27396610. Conditions: previously reported; cited from earlier work.
Data set [6] deals with phosphorylation of EGFR^L858R/T790M, AKT and ERK in H1975 cells. Kind of data set: Western blot analysis of EGFR and downstream signaling phosphorylation, H1975. Particulars: 2 h incubation, EGF 50 ng/mL 10 min. Format: cell-based. As to the method: (§4) Cells were starved in serum-free medium for 24 h before incubation of indicated concentrations of compounds 20a and 8 (positive control) and harvested after stimulation by EGF (50 ng/mL) for 10 min. Phosphorylation of EGFR and downstream signaling substrates was examined by Western Blot analysis. Blot source data is provided in Supplementary Fig. S1.
(§5) Western blot analysis was performed with standard procedures. Briefly, H1975 and A431 cell lines were seeded in six-well plates, starved in serum-free medium for 24 h, followed by incubation for 2 h in the presence of different concentrations of compounds 20a and 8 (as positive control). Cells were stimulated by the addition of EGF (50 ng/mL, R&D Systems, US) for 10 min, then washed with PBS and lysed in SDS lysis buffer. Antibodies against p-EGFR (Y1068; #3777 S), EGFR (#4267 S), p-ERK (T202/Y204; #4370 L), ERK (#4695 S), p-AKT (Ser473), AKT and Tubulin were used (Cell Signaling Technologies, Cambridge, MA).
In general terms: A western blot detects proteins with antibodies after separation by electrophoresis.

In data set [7] the test system is activation of EGFR^WT in A431 cells. Description: Western blot analysis of EGFR phosphorylation, A431. Format: cell-based. As to the method:
as §4, §5

Data set [8] relates to H1975 xenograft driven by EGFR^L858R/T790M. Description: In vivo antitumor efficacy, H1975 NSCLC xenograft mouse model. Also on record: species or system nude mice. Conditions: 14 days; for tumor growth inhibition (TGI): 50 mg/kg orally once per day, final day vs vehicle, P < 0.05. As to the method:
H1975 cells were implanted as described in Methods. […] H1975 xenograft mouse model tumor volumes (A) and body weights (B) were recorded every two or three days. All values represent mean ± SEM.
All experimental procedures involving animals were performed in accordance with the ethical guidelines from Shanghai Laboratory Animal Public Service Center and Animal Ethics Committee of the East China University of Science and Technology. The whole experimental protocol was also approved by the Animal Ethics Committee of the East China University of Science and Technology. All 4–6 weeks old nude mice were purchased from Shanghai Slac Laboratory Animal Co. Ltd (The license of experimental animal: SCXK (shanghai) 2012–0002). The mice were maintained under the 12 hour light/dark cycles condition in the specific pathogen free (SPF) cleanroom with fresh air (more than 50%), appropriate temperature (22–26 °C) and humidness (40–60%). All materials and containers were disinfected and sterilized before use. Nude mice, aged 4–6 weeks, were inoculated subcutaneously into the right flank with H1975 NSCLC cells (approximately 2 × 10^6 cells/mouse). When the tumor size reached a volume of ~200−400 mm^3, animals were randomly assigned into control and treated groups (n = 3/group). […] The sizes of tumor volume (V) were measured every two or three days by using vernier caliper, and were calculated with the formula V = (L × W^2)/2, where L and W stands for length and width, respectively.

Several values for one entry are separate records, joined by “and”; a condition that tells them apart may be missing. Equal entries are not always repeated. A value given as a limit tells only on which side of the number the result lay.

T1 sequence (P00533 712-979 limits assumed): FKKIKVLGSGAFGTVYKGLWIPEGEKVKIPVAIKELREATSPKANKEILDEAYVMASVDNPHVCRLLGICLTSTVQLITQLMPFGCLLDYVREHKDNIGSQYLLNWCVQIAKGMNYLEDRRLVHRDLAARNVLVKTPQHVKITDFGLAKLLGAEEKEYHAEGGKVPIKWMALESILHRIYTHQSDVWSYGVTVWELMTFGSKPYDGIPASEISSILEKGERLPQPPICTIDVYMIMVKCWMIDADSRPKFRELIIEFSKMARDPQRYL
T2 sequence (P00533 712-979 T790M/L858R limits assumed): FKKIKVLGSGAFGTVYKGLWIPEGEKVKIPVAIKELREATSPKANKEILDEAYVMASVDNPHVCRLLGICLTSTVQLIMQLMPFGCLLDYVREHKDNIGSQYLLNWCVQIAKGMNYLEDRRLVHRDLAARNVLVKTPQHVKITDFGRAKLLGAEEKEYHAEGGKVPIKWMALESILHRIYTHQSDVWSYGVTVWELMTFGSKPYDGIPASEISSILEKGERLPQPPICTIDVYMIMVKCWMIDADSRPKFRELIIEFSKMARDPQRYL

Consider `C=CC(=O)Nc1cccc(N2C(=O)OC(CCC)(CCC)c3cnc(Nc4ccc(N5CCN(C)CC5)cc4OC)nc32)c1` [20c, N-(3-(7-((2-Methoxy-4-(4-methylpiperazin-1-yl)phenyl)amino)-2-oxo-4,4-dipropyl-2H-pyrimido[4,5-d][1,3]oxazin-1(4H)-yl)phenyl)acrylamide], for which the IC50 in data set [1] is 6400 ± 349 nM; in data set [2], over 1000 nM; in data set [3], over 1000 nM; in data set [4] it was 9390 ± 1740 nM. Moreover, the “Cellular Selectivity A431:H1975” value in data set [4] came out at 0.7 fold.
In the case of `C=CC(=O)Nc1cccc(-n2c(=O)c(=O)n(C)c3cnc(Nc4ccc(N5CCN(C)CC5)cc4OC)nc32)c1` [compound 9], in data set [5], the “selectivity EGFR^L858R/T790M kinase over EGFR^WT kinase” value was 101 fold.
With `C=CC(=O)Nc1cccc(N2C(=O)OC(CC)(CC)c3cnc(Nc4ccc(N5CCN(C)CC5)cc4OC)nc32)c1` [20b, N-(3-(4,4-Diethyl-7-((2-methoxy-4-(4-methylpiperazin-1-yl)phenyl)amino)-2-oxo-2H-pyrimido[4,5-d][1,3]oxazin-1(4H)-yl)phenyl)acrylamide], the IC50 in data set [1] was 7040 ± 455 nM; in data set [2] it was over 1000 nM; in data set [3], over 1000 nM; in data set [4] it was 3710 ± 1370 nM. Moreover, in data set [4], the “Cellular Selectivity A431:H1975” value came out at 1.9 fold.
Turning to `C=CC(=O)Nc1cccc(N2C(=O)OC(C)(C)c3cnc(Nc4ccc(N5CCN(C)CC5)cc4OC)nc32)c1` [20a, N-(3-(7-((2-Methoxy-4-(4-methylpiperazin-1-yl)phenyl)amino)-4,4-dimethyl-2-oxo-2H-pyrimido[4,5-d][1,3]oxazin-1(4H)-yl)phenyl)acrylamide], the IC50 in data set [1] was found to be 1270 nM. Further, the IC50 in data set [2] was found to be 156 nM. Further, in data set [6], the “concentration inhibiting ERK phosphorylation” value is 100 nM, the “concentration inhibiting phosphorylation of AKT” value amounted to 10 nM and the “concentration inhibiting phosphorylation of EGFR^L858R/T790M” value is recorded as 10 nM. In addition, in data set [7], the “concentration at which obvious effect on EGFR activation appears” value is 1 µM. In data set [3], the IC50 was determined as 4.5 nM and the “Enzyme Selectivity WT:DM” value was about 35 fold. In data set [4], the IC50 is 135 nM and the “Cellular Selectivity A431:H1975” value worked out at 9.4 fold. The “tumor growth inhibition (TGI)” value in data set [8] was found to be 71%. Besides, in data set [8] (50 mg/kg/day orally), the “effect on body weight / tolerability” value is on record as “no obvious effect on the body weight”.
On to `C=CC(=O)Nc1cccc(Nc2nc(Nc3ccc(N4CCN(C(C)=O)CC4)cc3OC)ncc2C(F)(F)F)c1` [compound 7, CO-1686, reference compound], for which the IC50 came out at 1120 ± 117 nM in data set [1] and 73 ± 21 nM in data set [4]. Also, in data set [8], the “tumor growth inhibition (TGI)” value amounted to 72%.
Turning to `C=CC(=O)Nc1cccc(N2C(=O)OCc3cnc(Nc4ccc(N5CCN(C)CC5)cc4OC)nc32)c1` [16e, N-(3-(7-((2-Methoxy-4-(4-methylpiperazin-1-yl)phenyl)amino)-2-oxo-2H-pyrimido[4,5-d][1,3]oxazin-1(4H)-yl)phenyl)acrylamide], the IC50 stood at 1070 ± 241 nM in data set [1], 24 nM in data set [2], 7.3 nM in data set [3] and 222 ± 84 nM in data set [4]. Further, the “Enzyme Selectivity WT:DM” value in data set [3] was 3.3 fold. In addition, the “Cellular Selectivity A431:H1975” value in data set [4] came to 4.8 fold.
Turning to `C=CC(=O)Nc1cccc(N2C(=O)OC(C(C)C)c3cnc(Nc4ccc(N5CCN(C)CC5)cc4OC)nc32)c1` (centres unmarked) [16d, N-(3-(7-((2-Methoxy-4-(4-methylpiperazin-1-yl)phenyl)amino)-2-oxo-4-isopropyl-2H-pyrimido[4,5-d][1,3]oxazin-1(4H)-yl)phenyl)acrylamide], the IC50 was 1160 ± 279 nM in data set [1], 183 ± 47 nM in data set [2], 217 ± 86 nM in data set [3] and 1110 ± 748 nM in data set [4]. Moreover, the “Enzyme Selectivity WT:DM” value in data set [3] is recorded as 0.8 fold. Further, the “Cellular Selectivity A431:H1975” value in data set [4] stood at 1.0 fold.
Regarding `C=CC(=O)Nc1cccc(N2C(=O)OC(CCC)c3cnc(Nc4ccc(N5CCN(C)CC5)cc4OC)nc32)c1` (centres unmarked) [16c, N-(3-(7-((2-Methoxy-4-(4-methylpiperazin-1-yl)phenyl)amino)-2-oxo-4-propyl-2H-pyrimido[4,5-d][1,3]oxazin-1(4H)-yl)phenyl)acrylamide], the IC50 came to 2110 ± 877 nM in data set [1], 224 ± 41 nM in data set [2], 158 ± 27 nM in data set [3] and 1340 ± 791 nM in data set [4]. Besides, the “Enzyme Selectivity WT:DM” value in data set [3] is given as 1.4 fold. Besides, in data set [4], the “Cellular Selectivity A431:H1975” value stood at 1.6 fold.
As to `C=CC(=O)Nc1cccc(N2C(=O)OC(C)c3cnc(Nc4ccc(N5CCN(C)CC5)cc4OC)nc32)c1` (centres unmarked) [16a, N-(3-(7-((2-Methoxy-4-(4-methylpiperazin-1-yl)phenyl)amino)-4-methyl-2-oxo-2H-pyrimido[4,5-d][1,3]oxazin-1(4H)-yl)phenyl)acrylamide], the IC50 was 821 ± 162 nM in data set [1], 38 nM in data set [2], 5.4 nM in data set [3] and 400 ± 257 nM in data set [4]. The “Enzyme Selectivity WT:DM” value in data set [3] is 4–7 fold and 7 fold. Besides, the “Cellular Selectivity A431:H1975” value in data set [4] is 2.1 fold.
For the compound `C=CC(=O)Nc1cccc(N2C(=O)OC(CC)c3cnc(Nc4ccc(N5CCN(C)CC5)cc4OC)nc32)c1` (centres unmarked) [16b, N-(3-(4-Ethyl-7-((2-methoxy-4-(4-methylpiperazin-1-yl)phenyl)amino)-2-oxo-2H-pyrimido[4,5-d][1,3]oxazin-1(4H)-yl)phenyl)acrylamide], the IC50 in data set [1] worked out at 554 ± 285 nM; in data set [2], 23 ± 10 nM; in data set [3], 6.1 nM; in data set [4], 200 ± 83 nM. Besides, the “Enzyme Selectivity WT:DM” value in data set [3] is 4–7 fold and 3.8 fold. The “Cellular Selectivity A431:H1975” value in data set [4] is listed as 2.8 fold.

Source of the values: paper PMC5476563, “Structure-Guided Design of C4-alkyl-1,4-dihydro-2H-pyrimido[4,5-d][1,3]oxazin-2-ones as Potent and Mutant-Selective Epidermal Growth Factor Receptor (EGFR) L858R/T790M Inhibitors” (Scientific Reports, 2017).
